Results published in PMC9569593, “Measurement of Hepatic CYP3A4 and 2D6 Activity Using Radioiodine-Labeled O-Desmethylvenlafaxine” (International Journal of Molecular Sciences, 2022).
Like-named read-outs stand apart in the source and are kept apart here.

Legend:
[1] = system: CYP3A4; conditions: CYP3A4-inhibited mice (ketoconazole 50 mg/kg i.p. 60 min before), i.v.
Experimental: (§1) ^125I-ODV was prepared to a radioactive concentration of 30 MBq/mL by the addition of saline. For metabolite analysis in CYP-inhibited mice, we produced model mice with reduced CYP3A4 or CYP2D6 activity by selective inhibition using ketoconazole or paroxetine. CYP3A4-inhibited mice were injected intraperitoneally with 50 mg/kg of ketoconazole at 60 min before injection of ^125I-ODV, and CYP2D6-inhibited mice were injected intraperitoneally with 30 mg/kg of paroxetine at 60 min before injection of ^125I-ODV. Each of three mice was administered ^125I-ODV via the tail vein (3.0 MBq/100 µL/mouse). At 30 min, the three fasted mice were euthanized under isoflurane, and each gallbladder was collected. The radioactive products in bile were analyzed by TLC using methanol/acetate at a ratio of 100:1. Bile was directly spotted onto a TLC plate.
(§2) To examine the biological distribution in CYP-inhibited mice, we produced model mice in the same way as for the analysis of metabolism in bile. At 5, 15, 30, and 60 min after ^125I-ODV injection, mice were euthanized under isoflurane (n = 4), and the same tissues were collected and quantified.

[2] = system: CYP2D6; conditions: CYP2D6-inhibited mice (paroxetine 30 mg/kg i.p. 60 min before), i.v.
Experimental: as §1, §2

CN(C)CC(c1ccc(O)c([125I])c1)C1(O)CCCCC1 (stereo not shown) [^125I-ODV, iodine-125-labeled O-desmethylvenlafaxine]
Biological distribution, Blood ([1]; 5 min): 1.91 %ID/g
Biological distribution, Brain ([1]; 5 min): 0.71 %ID/g
Biological distribution, Gallbladder ([1]; 5 min): 2.39 %ID/g
Biological distribution, Heart ([1]; 5 min): 5.73 %ID/g
Biological distribution, Kidney ([1]; 5 min): 21.72 %ID/g
Biological distribution, Large intestines ([1]; 5 min): 1.19 %ID/organ
Biological distribution, Liver ([1]; 5 min): 5.66 %ID/g
Biological distribution, Lung ([1]; 5 min): 29.72 %ID/g
Biological distribution, Pancreas ([1]; 5 min): 8.93 %ID/g
Biological distribution, Small intestines ([1]; 5 min): 6.06 %ID/organ
Biological distribution, Spleen ([1]; 5 min): 6.61 %ID/g
Biological distribution, Stomach ([1]; 5 min): 2.37 %ID/organ
Biological distribution, Thyroid ([1]; 5 min): 0.05 %ID/organ
Biological distribution, Urine ([1]; 5 min): 2.10 %ID/organ
Biological distribution, Blood ([1]; 15 min): 1.71 %ID/g
Biological distribution, Brain ([1]; 15 min): 0.80 %ID/g
Biological distribution, Gallbladder ([1]; 15 min): 5.43 %ID/g
Biological distribution, Heart ([1]; 15 min): 3.93 %ID/g
Biological distribution, Kidney ([1]; 15 min): 19.74 %ID/g
Biological distribution, Large intestines ([1]; 15 min): 1.00 %ID/organ
Biological distribution, Liver ([1]; 15 min): 4.72 %ID/g
Biological distribution, Lung ([1]; 15 min): 21.72 %ID/g
Biological distribution, Pancreas ([1]; 15 min): 5.94 %ID/g
Biological distribution, Small intestines ([1]; 15 min): 6.37 %ID/organ
Biological distribution, Spleen ([1]; 15 min): 6.35 %ID/g
Biological distribution, Stomach ([1]; 15 min): 2.34 %ID/organ
Biological distribution, Thyroid ([1]; 15 min): 0.05 %ID/organ
Biological distribution, Urine ([1]; 15 min): 5.25 %ID/organ
Biological distribution, Blood ([1]; 30 min): 1.44 %ID/g
Biological distribution, Brain ([1]; 30 min): 0.74 %ID/g
Biological distribution, Gallbladder ([1]; 30 min): 9.16 %ID/g
Biological distribution, Heart ([1]; 30 min): 2.34 %ID/g
Biological distribution, Kidney ([1]; 30 min): 15.65 %ID/g
Biological distribution, Large intestines ([1]; 30 min): 1.00 %ID/organ
Biological distribution, Liver ([1]; 30 min): 5.03 %ID/g
Biological distribution, Lung ([1]; 30 min): 11.31 %ID/g
Biological distribution, Pancreas ([1]; 30 min): 23.69 %ID/g
Biological distribution, Small intestines ([1]; 30 min): 7.71 %ID/organ
Biological distribution, Spleen ([1]; 30 min): 4.03 %ID/g
Biological distribution, Stomach ([1]; 30 min): 2.24 %ID/organ
Biological distribution, Thyroid ([1]; 30 min): 0.09 %ID/organ
Biological distribution, Urine ([1]; 30 min): 5.63 %ID/organ
Biological distribution, Blood ([1]; 60 min): 0.65 %ID/g
Biological distribution, Brain ([1]; 60 min): 0.52 %ID/g
Biological distribution, Gallbladder ([1]; 60 min): 20.14 %ID/g
Biological distribution, Heart ([1]; 60 min): 0.96 %ID/g
Biological distribution, Kidney ([1]; 60 min): 9.60 %ID/g
Biological distribution, Large intestines ([1]; 60 min): 0.68 %ID/organ
Biological distribution, Liver ([1]; 60 min): 2.12 %ID/g
Biological distribution, Lung ([1]; 60 min): 5.81 %ID/g
Biological distribution, Pancreas ([1]; 60 min): 2.77 %ID/g
Biological distribution, Small intestines ([1]; 60 min): 10.07 %ID/organ
Biological distribution, Spleen ([1]; 60 min): 1.94 %ID/g
Biological distribution, Stomach ([1]; 60 min): 1.90 %ID/organ
Biological distribution, Thyroid ([1]; 60 min): 0.11 %ID/organ
Biological distribution, Urine ([1]; 60 min): 2.01 %ID/organ
Biological distribution, Blood ([2]; 5 min): 1.83 %ID/g
Biological distribution, Brain ([2]; 5 min): 0.79 %ID/g
Biological distribution, Gallbladder ([2]; 5 min): 1.59 %ID/g
Biological distribution, Heart ([2]; 5 min): 5.19 %ID/g
Biological distribution, Kidney ([2]; 5 min): 19.94 %ID/g
Biological distribution, Large intestines ([2]; 5 min): 1.12 %ID/organ
Biological distribution, Liver ([2]; 5 min): 7.19 %ID/g
Biological distribution, Lung ([2]; 5 min): 22.13 %ID/g
Biological distribution, Pancreas ([2]; 5 min): 6.02 %ID/g
Biological distribution, Small intestines ([2]; 5 min): 7.24 %ID/organ
Biological distribution, Spleen ([2]; 5 min): 4.62 %ID/g
Biological distribution, Stomach ([2]; 5 min): 1.77 %ID/organ
Biological distribution, Thyroid ([2]; 5 min): 0.05 %ID/organ
Biological distribution, Urine ([2]; 5 min): 0.33 %ID/organ
Biological distribution, Blood ([2]; 15 min): 1.59 %ID/g
Biological distribution, Brain ([2]; 15 min): 0.82 %ID/g
Biological distribution, Gallbladder ([2]; 15 min): 10.66 %ID/g
Biological distribution, Heart ([2]; 15 min): 2.87 %ID/g
Biological distribution, Kidney ([2]; 15 min): 17.13 %ID/g
Biological distribution, Large intestines ([2]; 15 min): 0.93 %ID/organ
Biological distribution, Liver ([2]; 15 min): 5.56 %ID/g
Biological distribution, Lung ([2]; 15 min): 11.96 %ID/g
Biological distribution, Pancreas ([2]; 15 min): 5.71 %ID/g
Biological distribution, Small intestines ([2]; 15 min): 5.64 %ID/organ
Biological distribution, Spleen ([2]; 15 min): 4.97 %ID/g
Biological distribution, Stomach ([2]; 15 min): 2.40 %ID/organ
Biological distribution, Thyroid ([2]; 15 min): 0.04 %ID/organ
Biological distribution, Urine ([2]; 15 min): 6.18 %ID/organ
Biological distribution, Blood ([2]; 30 min): 1.12 %ID/g
Biological distribution, Brain ([2]; 30 min): 0.71 %ID/g
Biological distribution, Gallbladder ([2]; 30 min): 21.66 %ID/g
Biological distribution, Heart ([2]; 30 min): 1.47 %ID/g
Biological distribution, Kidney ([2]; 30 min): 15.90 %ID/g
Biological distribution, Large intestines ([2]; 30 min): 0.74 %ID/organ
Biological distribution, Liver ([2]; 30 min): 5.08 %ID/g
Biological distribution, Lung ([2]; 30 min): 7.77 %ID/g
Biological distribution, Pancreas ([2]; 30 min): 3.94 %ID/g
Biological distribution, Small intestines ([2]; 30 min): 10.30 %ID/organ
Biological distribution, Spleen ([2]; 30 min): 2.88 %ID/g
Biological distribution, Stomach ([2]; 30 min): 3.20 %ID/organ
Biological distribution, Thyroid ([2]; 30 min): 0.05 %ID/organ
Biological distribution, Urine ([2]; 30 min): 22.96 %ID/organ
Biological distribution, Blood ([2]; 60 min): 0.67 %ID/g
Biological distribution, Brain ([2]; 60 min): 0.58 %ID/g
Biological distribution, Gallbladder ([2]; 60 min): 26.70 %ID/g
Biological distribution, Heart ([2]; 60 min): 0.62 %ID/g
Biological distribution, Kidney ([2]; 60 min): 8.33 %ID/g
Biological distribution, Large intestines ([2]; 60 min): 0.67 %ID/organ
Biological distribution, Liver ([2]; 60 min): 1.75 %ID/g
Biological distribution, Lung ([2]; 60 min): 3.15 %ID/g
Biological distribution, Pancreas ([2]; 60 min): 2.51 %ID/g
Biological distribution, Small intestines ([2]; 60 min): 10.85 %ID/organ
Biological distribution, Spleen ([2]; 60 min): 1.46 %ID/g
Biological distribution, Stomach ([2]; 60 min): 2.20 %ID/organ
Biological distribution, Thyroid ([2]; 60 min): 0.10 %ID/organ
Biological distribution, Urine ([2]; 60 min): 33.92 %ID/organ
